Measurements reported in DBAASP.
Converted amounts (≈) assume the structure as drawn. “And” between values parts separate entries of the source, which are not always exact repeats. Equal entries are not always repeated. Blank lines part the entries; values can stand above or below the compound they belong to.

Legend:
Test in all cases: ≥ marks a high value that may be exact or a test limit, other limits are often not marked, values filed in µg/mL are converted to µM
[1] = tested on: Pseudomonas aeruginosa PAO1
[2] = tested on: Staphylococcus aureus ATCC 25923
Escherichia coli UB1005 = tested on: Escherichia coli UB1005
[3] = tested on: Pseudomonas aeruginosa ATCC 27853
[4] = tested on: Staphylococcus aureus ATCC 29213
[5] = tested on: Staphylococcus epidermidis ATCC 12228
[6] = tested on: Escherichia coli ATCC 25922
[7] = tested on: Staphylococcus aureus ATCC 43300
Escherichia coli = tested on: Escherichia coli
Staphylococcus aureus = tested on: Staphylococcus aureus
Pseudomonas aeruginosa = tested on: Pseudomonas aeruginosa
[8] = tested on: Candida albicans ATCC 90028
[9] = tested on: Klebsiella pneumoniae ATCC 700603

- MIC [1]: 52.1 µM (≈ 128 µg/mL)
- MIC [2]: 13 µM (≈ 32 µg/mL)
- MIC (Escherichia coli UB1005): 2.04 µM (≈ 5 µg/mL)
SMILES: CC[C@H](C)[C@H](NC(=O)[C@H](CCCN=C(N)N)NC(=O)[C@H](CCCN=C(N)N)NC(=O)[C@@H]1CCCN1C(=O)[C@H](Cc1ccc(O)cc1)NC(=O)[C@H](CCCN=C(N)N)NC(=O)[C@@H]1CCCN1C(=O)[C@H](CCCN=C(N)N)NC(=O)[C@@H]1CCCN1C(=O)[C@H](CC(C)C)NC(=O)[C@H](Cc1ccc(O)cc1)NC(=O)[C@@H]1CCCN1C(=O)[C@@H]1CCCN1C(=O)[C@H](CCCCN)NC(=O)[C@H](CC(=O)O)NC(=O)[C@@H](N)C(C)C)C(=O)N[C@@H](Cc1ccc(O)cc1)C(=O)N[C@@H](CC(N)=O)C(=O)N[C@@H](CCCN=C(N)N)C(N)=O [VDKPPYLPRPRYPRRIYNR]

- MIC [3]: 16 µM (≈ 34.2 µg/mL)
- MIC [4]: 8 µM (≈ 17.1 µg/mL)
- MIC [5]: 4 µM (≈ 8.55 µg/mL)
- MIC [6]: 16 µM (≈ 34.2 µg/mL)
SMILES: CC[C@H](C)[C@H](N)C(=O)N[C@@H](Cc1c[nH]c2ccccc12)C(=O)N[C@@H](CCCN=C(N)N)C(=O)N[C@H](C(=O)N[C@@H](Cc1ccccc1)C(=O)N[C@@H](CCCN=C(N)N)C(=O)N[C@@H](CCCN=C(N)N)C(=O)N[C@H](C(=O)N[C@@H](Cc1ccccc1)C(=O)N[C@@H](CCCN=C(N)N)C(=O)N[C@H](C(=O)N[C@@H](Cc1ccccc1)C(=O)N[C@H](C(=O)N[C@@H](CCCN=C(N)N)C(=O)N[C@@H](Cc1ccccc1)C(N)=O)[C@@H](C)CC)[C@@H](C)CC)[C@@H](C)CC)[C@@H](C)CC [IWRIFRRIFRIFIRF]

- MIC [1]: 3.13 µM (≈ 8 µg/mL)
- MIC [2]: 0.391 µM (≈ 1 µg/mL)
- MIC (Escherichia coli UB1005): 0.979 µM (≈ 2.5 µg/mL)
SMILES: CC(C)C[C@H](NC(=O)[C@H](Cc1ccc(O)cc1)NC(=O)[C@@H]1CCCN1C(=O)[C@@H]1CCCN1C(=O)[C@H](CCCCN)NC(=O)[C@H](CCCN=C(N)N)NC(=O)[C@@H](N)C(C)C)C(=O)N1CCC[C@H]1C(=O)N[C@@H](CCCN=C(N)N)C(=O)N1CCC[C@H]1C(=O)N[C@@H](CCCN=C(N)N)C(=O)N[C@@H](Cc1c[nH]c2ccccc12)C(=O)N1CCC[C@H]1C(=O)N[C@@H](CCCN=C(N)N)C(=O)N[C@@H](CCCN=C(N)N)C(=O)N[C@@H](Cc1ccccc1)C(=O)N[C@@H](Cc1ccc(O)cc1)C(=O)N[C@@H](CC(N)=O)C(=O)N[C@@H](CCCN=C(N)N)C(N)=O [VRKPPYLPRPRWPRRFYNR]

- MIC [1]: 52.2 µM (≈ 128 µg/mL)
- MIC [2]: 13.1 µM (≈ 32 µg/mL)
- MIC (Escherichia coli UB1005): 1.02 µM (≈ 2.5 µg/mL)
SMILES: CC[C@H](C)[C@H](NC(=O)[C@H](CCCN=C(N)N)NC(=O)[C@H](CCCN=C(N)N)NC(=O)[C@@H]1CCCN1C(=O)[C@H](CCCN=C(N)N)NC(=O)[C@H](CCCN=C(N)N)NC(=O)[C@@H]1CCCN1C(=O)[C@H](CCCN=C(N)N)NC(=O)[C@@H]1CCCN1C(=O)[C@H](CC(C)C)NC(=O)[C@H](Cc1ccc(O)cc1)NC(=O)[C@@H]1CCCN1C(=O)[C@@H]1CCCN1C(=O)[C@H](CCCCN)NC(=O)[C@H](CC(=O)O)NC(=O)[C@@H](N)C(C)C)C(=O)N[C@@H](Cc1ccc(O)cc1)C(=O)N[C@@H](CC(N)=O)C(=O)N[C@@H](CCCN=C(N)N)C(N)=O [VDKPPYLPRPRRPRRIYNR]

- MIC [3]: 40 µM (≈ 60.6 µg/mL)
- MIC [4]: 40 µM (≈ 60.6 µg/mL)
- MIC [8]: ≥ 40 µM
- MIC [6]: 40 µM (≈ 60.6 µg/mL)
SMILES: CC[C@H](C)[C@H](NC(=O)[C@H](CCCN=C(N)N)NC(=O)[C@H](CCC(N)=O)NC(=O)[C@@H](NC(=O)[C@@H](NC(=O)[C@H](CCCN=C(N)N)NC(=O)[C@H](C)N)[C@@H](C)CC)C(C)C)C(=O)N[C@@H](CCCCN)C(=O)N[C@@H](CC(=O)O)C(=O)N[C@@H](Cc1ccccc1)C(=O)N[C@@H](CC(C)C)C(=O)N[C@@H](CCCN=C(N)N)C(=O)O [ARIVQRIKDFLR]

- MIC [6]: 1.63 µM (≈ 4 µg/mL)
- MIC [9]: 3.27 µM (≈ 7.99 µg/mL)
SMILES: CC[C@H](C)[C@H](NC(=O)[C@@H](NC(=O)[C@@H]1CCCN1C(=O)[C@@H](NC(=O)[C@@H]1CCCN1C(=O)[C@H](CCCCN)NC(=O)[C@H](CCCCN)NC(=O)[C@H](CO)NC(=O)CN)C(C)C)[C@@H](C)CC)C(=O)N[C@@H](Cc1ccc(O)cc1)C(=O)N[C@H]1CSSC[C@@H](C(=O)N[C@@H](CCC(N)=O)C(=O)N[C@@H](CCCN=C(N)N)C(=O)N[C@@H](CCSC)C(=O)O)NC(=O)[C@H](CCCCN)NC(=O)CNC(=O)[C@H]([C@@H](C)O)NC(=O)[C@H](CCCN=C(N)N)NC(=O)[C@H](CCCN=C(N)N)NC(=O)[C@H](CCC(N)=O)NC1=O [GSKKPVPIIYCQRRTGKCQRM]

The remaining lines, values behind:

SMILES: CC(C)C[C@H](NC(=O)[C@H](CCCCN)NC(=O)CN)C(=O)N[C@@H](Cc1c[nH]c2ccccc12)C(=O)N[C@@H](CC(C)C)C(=O)N[C@@H](CCCCN)C(=O)NCC(=O)NCC(=O)N[C@@H](CCCCN)C(=O)N[C@@H](CC(C)C)C(=O)N[C@@H](Cc1c[nH]c2ccccc12)C(=O)N[C@@H](CC(C)C)C(=O)N[C@@H](CCCCN)C(=O)NCC(=O)NCC(=O)N[C@@H](CCCCN)C(=O)N[C@@H](CC(C)C)C(=O)N[C@@H](Cc1c[nH]c2ccccc12)C(=O)N[C@@H](CC(C)C)C(=O)N[C@@H](CCCCN)C(=O)NCC(N)=O [GKLWLKGGKLWLKGGKLWLKG]
- MIC [7]: 32 µM (≈ 75.7 µg/mL)

SMILES: CC(C)C[C@H](NC(=O)[C@H](C)NC(=O)[C@H](CC(C)C)NC(=O)[C@@H](N)CCCCN)C(=O)N[C@@H](CCCCN)C(=O)N[C@@H](C)C(=O)N[C@@H](C)C(=O)N[C@@H](CC(C)C)C(=O)N[C@@H](CCCCN)C(=O)N[C@@H](C)C(=O)N[C@@H](Cc1c[nH]c2ccccc12)C(=O)N[C@@H](CCCCN)C(=O)N[C@@H](C)C(=O)N[C@@H](C)C(=O)N[C@@H](C)C(=O)N[C@@H](CCCCN)C(=O)N[C@@H](CC(C)C)C(=O)N[C@@H](C)C(N)=O [KLALKAALKAWKAAAKLA]
- MIC (Escherichia coli): 7.78 µM (≈ 14.5 µg/mL)
- MIC (Staphylococcus aureus): 45 µM (≈ 83.9 µg/mL)
- MIC (Pseudomonas aeruginosa): 45 µM (≈ 83.9 µg/mL)

SMILES: CC[C@H](C)[C@H](NC(=O)[C@H](C)NC(=O)[C@H](CCC(N)=O)NC(=O)[C@@H](NC(=O)[C@@H](NC(=O)[C@H](CCCN=C(N)N)NC(=O)[C@@H](N)CCCCN)[C@@H](C)CC)C(C)C)C(=O)N[C@@H](CCCCN)C(=O)N[C@@H](CC(=O)O)C(=O)N[C@@H](Cc1ccccc1)C(=O)N[C@@H](CC(C)C)C(=O)N[C@@H](CCCN=C(N)N)C(=O)O [KRIVQAIKDFLR]
- MIC [3]: 40 µM (≈ 59.5 µg/mL)
- MIC [4]: 40 µM (≈ 59.5 µg/mL)
- MIC [8]: ≥ 40 µM
- MIC [6]: 40 µM (≈ 59.5 µg/mL)

SMILES: CC[C@H](C)[C@H](NC(=O)[C@H](Cc1c[nH]c2ccccc12)NC(=O)[C@H](CCCCN)NC(=O)[C@@H](NC(=O)[C@H](CC(C)C)NC(=O)[C@H](CCCCN)NC(=O)CNC(=O)[C@@H](NC(=O)[C@@H](NC(=O)[C@H](CO)NC(=O)[C@@H](NC(=O)[C@@H](NC(=O)[C@H](CCCCN)NC(=O)[C@H](CCC(N)=O)NC(=O)[C@H](C)NC(=O)[C@@H](N)CCSC)[C@@H](C)CC)[C@@H](C)CC)[C@@H](C)O)[C@@H](C)CC)C(C)C)C(=O)N[C@H](C(=O)N[C@@H](CCCCN)C(=O)N[C@H](C(=O)N[C@H](C(=O)N[C@@H](CC(N)=O)C(=O)N[C@@H](CCCCN)C(=O)N[C@@H](Cc1ccccc1)C(=O)N[C@H](C(=O)N[C@@H](CCCCN)C(=O)N[C@@H](CCCCN)C(=O)O)[C@@H](C)O)C(C)C)[C@@H](C)O)[C@@H](C)CC [MAQKIISTIGKLVKWIIKTVNKFTKK]
- MIC (Escherichia coli): 3.8 µM (≈ 11.5 µg/mL)
- MIC (Staphylococcus aureus): 20 µM (≈ 60.4 µg/mL)

SMILES: CC(C)C[C@H](NC(=O)[C@H](CCCCN)NC(=O)[C@H](C)N)C(=O)N[C@@H](Cc1c[nH]c2ccccc12)C(=O)N[C@@H](CC(C)C)C(=O)N[C@@H](CCCCN)C(=O)N[C@@H](C)C(=O)N[C@@H](C)C(=O)N[C@@H](CCCCN)C(=O)N[C@@H](CC(C)C)C(=O)N[C@@H](Cc1c[nH]c2ccccc12)C(=O)N[C@@H](CC(C)C)C(=O)N[C@@H](CCCCN)C(=O)N[C@@H](C)C(N)=O [AKLWLKAAKLWLKA]
- MIC [7]: 16 µM (≈ 26.2 µg/mL)

SMILES: CC(C)C[C@H](NC(=O)[C@H](Cc1ccc(O)cc1)NC(=O)[C@H](Cc1ccc(O)cc1)NC(=O)CNC(=O)[C@H](Cc1c[nH]c2ccccc12)NC(=O)[C@H](CO)NC(=O)[C@H](CO)NC(=O)[C@H](Cc1c[nH]c2ccccc12)NC(=O)[C@H](CC(C)C)NC(=O)[C@H](CCCCN)NC(=O)[C@@H](NC(=O)[C@@H](NC(=O)[C@H](CC(C)C)NC(=O)[C@@H](N)CC(=O)O)[C@@H](C)O)[C@@H](C)O)C(=O)NCC(=O)O [DLTTKLWSSWGYYLG]
- MIC [5]: 25 µM (≈ 44.8 µg/mL)

SMILES: CC(C)C[C@H](NC(=O)[C@H](CC(C)C)NC(=O)[C@H](C)NC(=O)[C@H](CCCCN)NC(=O)[C@H](C)NC(=O)[C@H](C)NC(=O)[C@H](C)NC(=O)[C@H](CC(C)C)NC(=O)[C@H](Cc1c[nH]c2ccccc12)NC(=O)[C@H](CCCCN)NC(=O)[C@H](C)NC(=O)[C@H](CC(C)C)NC(=O)[C@H](CC(C)C)NC(=O)[C@H](CCCCN)NC(=O)[C@H](CCCCN)NC(=O)[C@H](CC(C)C)NC(=O)[C@H](C)NC(=O)[C@@H](N)CCCCN)C(N)=O [KALKKLLAKWLAAAKALL]
- MIC (Escherichia coli): 6.1 µM (≈ 11.9 µg/mL)
- MIC (Staphylococcus aureus): 1.5 µM (≈ 2.92 µg/mL)
- MIC (Pseudomonas aeruginosa): 12.2 µM (≈ 23.8 µg/mL)

SMILES: CC[C@H](C)[C@H](N)C(=O)N[C@@H](CC(N)=O)C(=O)N[C@@H](Cc1c[nH]c2ccccc12)C(=O)N[C@@H](CCCCN)C(=O)N[C@@H](CCCCN)C(=O)N[C@H](C(=O)N[C@@H](Cc1ccccc1)C(=O)N[C@@H](CCC(=O)O)C(=O)N[C@@H](CCCCN)C(=O)N[C@H](C(=O)N[C@@H](CCCCN)C(=O)N[C@@H](CC(N)=O)C(=O)N[C@@H](CC(C)C)C(=O)N[C@H](C(N)=O)C(C)C)C(C)C)[C@@H](C)CC [INWKKIFEKVKNLV]
- MIC (Escherichia coli): 7.5 µM and 6.25 µM and 3.12 µM
- MIC (Staphylococcus aureus): 11.8 µM (≈ 20.7 µg/mL)
- MIC (Pseudomonas aeruginosa): 86.6 µM (≈ 152 µg/mL)
